A short description of data set [1]: Pharmacokinetics in male CD1 mice. Format: in vivo. On the procedure: Beijing Pharmaron Inc. carried out pharmacokinetic studies relating to compound Y-31 in mice. All of the animals were kept in a pathogen-free barrier animal facility, and the company’s Animal Care and Use Committee approved the experiments. On the day of administration, the sample solution was made into a 5, 20 mg/kg solution. Following a single dosage of compound Y-31 either intravenously (5 mg/kg, IV) or orally (20 mg/kg, PO) at 0.25, 0.5, 1, 2, 4, 6, 8, and 24 h post-administration, blood samples were taken from CD1 male mice (n = 3). After that, the plasma was centrifuged for […] at 4000 g and 4 °C to yield. The plasma was diluted 3 times with water. For quantitative analysis, a measurement of 2 µL of diluted supernatant was put into the LC/MS/MS apparatus. […] Phoenix WinNonlin 8.0 software was applied to calculate the pharmacokinetic parameters.

In data set [2] the test system is P. aeruginosa PAO1 pyocyanin. Briefly: Pyocyanin quantification assay. Format: cell-based, Pseudomonas aeruginosa. As to the method: The method used to perform the pyocyanin quantification assay was previously reported. In short, P. aeruginosa PAO1 was cultivated in LB medium to reach the logarithmic growth phase at 37 °C and 150 rpm. Following this, the medium (2% peptone, 1% K2SO4, 0.3% MgCl2) was diluted 10 times. A 5 mL bacterial culture containing and excluding the compound (162.5 μM, 81.25 μM, and 20 μM) was incubated for 16 h at 37 °C at 150 rpm. The culture was centrifuged at 1665 g for 10 min in order to extract pyocyanin. The supernatant was then collected and extracted using 3 mL of chloroform. The upper aqueous phase was then collected via centrifugation at 1665 g for 10 min after 1 mL of 0.2 M HCl was combined with the chloroform layer. Absorbance was measured at 520 nm. The pyocyanin inhibition rate was calculated as follows = (OD520 blank − OD520 sample)/OD520 blank × 100%.

The subject of data set [3] is P. aeruginosa PAO1 biofilms. The experiment in a line: Biofilm quantification, crystal violet assay. Type of data set: cell-based, Pseudomonas aeruginosa. Conditions: Pseudomonas aeruginosa, PAO1. On the procedure:
3.2.3. Biofilm Quantification Assays
The crystal violet assay was used to quantitatively analyze the biofilm, as previously described. P. aeruginosa PAO1 log phase was diluted 100 times with fresh LB medium and incubated for 3.5 h at 37 °C and 150 rpm. After that, the P. aeruginosa PAO1 bacterial culture was added to the 96-well plate. P. aeruginosa PAO1 bacterial culture in 90 μL was added to the experimental group, and 10 μL of the test compound at a final concentration of 325 μM, 162.5 μM, 81.25 μM, 40 μM, 20 μM, and 10 μM. Each well received 100 μL of bacterial culture for the control group and 100 μL of fresh LB medium for the blank group. After 20 h of incubation at 37 °C, the bacterial culture was removed from the 96-well plate, and it was dried after three PBS washes. Each well received […] of 0.1% crystal violet (CV) for a 15 min staining period. Each well was washed three times with PBS after the CV was removed. Lastly, each well received 150 μL of 33% glacial acetic acid, and a Biotek multi-function microplate reader was used to measure the absorbance value at 595 nm. The biofilm inhibition rate was calculated as follows = (OD595 blank − OD595 sample)/OD595 blank × 100%.

Data set [4] has as its system C. violaceum CV026 QS. The experiment in a line: Half-maximal inhibitory concentration against C. violaceum CV026 QS (suppression of violacein production). Format: cell-based. The conditions noted are these: Chromobacterium violaceum; C6-HSL-induced violacein production, 12 h; mean ± SD of three independent tests; read-out: IC50, anti-CV026 QS activity. An excerpt: In the exploration of the QS inhibitions, C. violaceum CV026, a mini-T5 mutant of C. violaceum ATCC31532, is frequently employed as a biosensor strain. Because C. violaceum CV026 lacks the CviI gene, which directs the synthesis of AHLs, it is unable to manufacture violacein on its own. The violacein reaction can be induced in C. violaceum CV026 by adding exogenous C6-HSL [27]. As a result, the violacein reaction in C. violaceum CV026 can be used to assess the compounds’ suppression of QS, as used in this investigation.
3.2.2. The Half-Maximal Inhibitory Concentration (IC50) of Compounds against C. violaceum CV026 QS [36]
Subsequently, the log phase of C. violaceum CV026 was placed in a 12-well plate (2 mL/well) after being diluted 10-fold with fresh LB medium. The experimental group received 15 μL of the diluted inducer C6-HSL (0.125 mM), and 8 μL of each dilution gradient compound was added to each well, while the positive control group received 8 μL of C10-HSL, and the blank control group received 8 μL of LB medium. The plates were incubated at 30 °C and 130 rpm for 12 h. After centrifuging 1 mL of the culture for 10 min at 11,255 g, the supernatant was discarded. After dissolving the violacein with 500 μL of DMSO, the mixture was centrifuged once more at 11,255 g for 10 min. In order to measure the absorbance at 585 nm, 200 μL of the upper pigment was added to a 96-well plate. The IC50 was calculated using GraphPad Prism 5 according to the formula (absorbance at 585 nm of the test concentration/the absorbance of the control at 585 nm × 100%).

The mark [5] stands for this setting: mouse, plasma, IV, 5 mg/kg, male CD1 mice.
[6] abbreviates: mouse, plasma, PO, 20 mg/kg, male CD1 mice.

One may read the AUC as the area under the concentration-time curve, a measure of exposure. Lower therefore signals low exposure. By Cmax is commonly meant the maximum level reached in the sampled fluid or tissue. Broadly, the Tmax is the time from dosing to the highest level. Usually half-life stands for the time needed for the level to fall by half in the phase considered. Low values mean fast loss, high ones slow loss. Broadly, the bioavailability is dose-corrected exposure relative to a reference, in per cent. By IC50 is commonly meant the point on the concentration scale where inhibition reaches its midpoint. As to `O=C(CCCOc1ccc(I)cc1)NN1CCCOC1=O` [Y-31], in data set [1] (setting [5]), the AUC amounted to 935 ng·h/mL, the Cmax came to 3290 ng/mL, the Tmax was 4.8 min and the half-life is 7.8 min. For the same compound, the bioavailability in data set [1] (mouse, plasma, PO, 20 mg/kg vs IV 5 mg/kg, male CD1 mice, read-out: F (bioavailability)) worked out at 30.4%. In addition, in data set [1] (setting [6]), the AUC was 1100 ng·h/mL, the Cmax came out at 1280 ng/mL, the Tmax stood at 15 min and the half-life was 311 min. For the same compound, the “Clinical symptoms during the pharmacokinetic trial” value in data set [1] (single dose 5 mg/kg IV or 20 mg/kg PO, CD1 male mice) is reported as “no unusual clinical symptoms were noticed”. Also, the “Inhibition rate of pyocyanin” value in data set [2] (162.5 μM) was 22.5%. For the same compound, in data set [2] (Pseudomonas aeruginosa, PAO1, read-out: Inhibition rate of pyocyanin, 40 μM), the inhibition at 40 µM amounted to 10%. In addition, the inhibition at 81.5 µM in data set [2] (Pseudomonas aeruginosa, PAO1, read-out: Inhibition rate of pyocyanin, 81.5 μM) was 17.1%. For the same compound, the inhibition at 162.5 µM in data set [2] (Pseudomonas aeruginosa, PAO1, read-out: Inhibition rate of pyocyanin, 162.5 μM) stood at 22.5%. In data set [3] (40 μM, read-out: P. aeruginosa PAO1 biofilm inhibition rate), the inhibition at 40 µM came to 40.4%. Also, the inhibition at 20.3125 µM in data set [3] (concentration 20.3125 (unit not given in Table S1; μM in method), 20 h, read-out: Inhibition ratio of biofilm) was found to be 21.1%. The inhibition at 40.625 µM in data set [3] (concentration 40.625 (unit not given in Table S1; μM in method), 20 h, read-out: Inhibition ratio of biofilm) came to 40.4%. Also, the inhibition at 81.25 µM in data set [3] (concentration 81.25 (unit not given in Table S1; μM in method), 20 h, read-out: Inhibition ratio of biofilm) is 39.5%. The inhibition at 162.5 µM in data set [3] (concentration 162.5 (unit not given in Table S1; μM in method), 20 h, read-out: Inhibition ratio of biofilm) amounted to 42.1%. In addition, the inhibition at 325 µM in data set [3] (concentration 325 (unit not given in Table S1; μM in method), 20 h, read-out: Inhibition ratio of biofilm) was determined as 41%. The IC50 in data set [4] was found to be 91.5 ± 3.35 µM.

The record behind these values is article PMC11123961, “Design, Synthesis, and Biological Evaluation of the Quorum-Sensing Inhibitors of Pseudomonas aeruginosa PAO1” (Molecules, 2024).
